The subject of one series is HBsAg secretion. In words: HBsAg assay (ELISA of secreted HBsAg, HepG2-Clone42 cells). It counts as cell-based, HBV. The procedure: HepG2-Clone42, a Tet-inducible HBV-expressing cell line with a stably integrated 1.3mer copy of the HBV ayw strain, was generated based on the Tet-inducible HepAD38 cell line with slight modifications. Ladner S K, et al., Antimicrobial Agents and Chemotherapy. 41(8):1715-1720 (1997). HepG2-Clone42 cells were cultured in DMEM/F-12+Glutamax™ (Life Technologies, Carlsbad, Calif., USA), supplemented with 10% fetal bovine serum (Life Technologies), G-418 (Corning, Manassas, Va., USA) at a final concentration of 0.5 mg/mL, and 5 μg/mL Doxycycline (Sigma, St. Louis, Mo., USA) and maintained in 5% CO2 at 37° C.
HepG2-Clone42 cells were seeded in into black clear-bottom 96-well plates at a concentration of 6.0×10^4 cells/well. 24 hours post-seeding, the cells were treated with 200 μl/well of media containing five-fold serial dilutions of compounds in DMSO. DMSO alone was used as the no drug control. The final DMSO concentration in all wells was 0.5%.
The HBsAg ELISA kit (Alpha Diagnostic International, San Antonio, Tex., USE, Catalog #4110) was used to determine the level (semi-quantitative) of secreted HBV sAg.
The HBSAg ELISA assay was performed following the manufacturer's protocol as described.
Step 1. Pipet 100 μL each of compound or DMSO treated samples into HBsAg ELISA plates. Seal plates and incubate at room temp for 60 minutes.
Step 2. Aspirate samples and wash three times with Wash Buffer. Dispense 100μ of antibody-HRP conjugate to each well. Incubate at room temp for 30 minutes.
Step 3. Aspirate samples and wash three times with Wash Buffer. Add 100 μL of TMB Substrate to all wells and incubate 15 minutes at room temp.
Step 4. Dispense 100 μL of Stop Solution to each well. Measure absorbance of ELISA plate at 450 nm.
EC50 values were determined as follows: • 1. Determine the percent of HBsAg secretion inhibition. Calculate the percent inhibition on of HBsAg secretion inhibition using the following equation: 100×(XC−MB)/(MD−MB) • where XC is the absorbance signal from compound-treated well; MB is average absorbance signal (background signal) for column 12 (no cells+HBsAg ELISA sample buffer) and MD is average absorbance signal from DMSO-treated wells. Then calculate EC50 values by non-linear regression using a four parameter curve logistic equation. The curve fit model employed is XLFit Dose Response One Site Model 204: y=(A+((B−A)/(1+(10^((C−x)*D))))) where A is the minimum y value, B is the maximum y value, C is the log EC50 value, and D is the slope factor. High Throughput Solubility Measurement • 1. Transfer 20 ul of 10 mM DMSO stock solution into a 96 deep well plate labeled as […] and 5 ul to another plate labeled as compound standard plate. • 2. Place the buffer plate in a Multi-Tainer MT-4 container (FTS Systems). Freeze dry overnight to remove DMSO. • 3. Add 100 ul of Cl-free PBS (pH 6.8) to the dried compound in the buffer plate and 95 ul of DMSO to the standard plate. • 4. The buffer plate is be sonicated in a water bath for 10 min. • 5. The two plates are then placed onto the VWR orbital shaker to equilibrate for 24 hours at room temperature. • 6. The buffer plate is centrifuged at 4000 rpm for 30 min. • 7. Transfer 10 ul aliquots of supernatant from the buffer plate to a sample plate and dilute 5 fold. • 8. Inject both compound standard and sample into the UPLC/UV/CLND/MS to generate multi detector qualitative and quantitive analytical data. • 9. Data was processed with Xcalibur. CLND equimolar response was used for measuring compound concentration of DMSO solution. UV270 nm or MS relative ratio was used for solubility determination.

Series [1] in a line: High throughput solubility measurement in PBS. It counts as physicochemical. The note with it: Cl-free PBS, aqueous buffer, thermodynamic from solid; PBS (phosphate-buffered saline), pH 6.8, 24 hours at room temperature. The text has this: The following table provides data for solubility of compounds of the invention in PBS (phosphate-buffered saline), using a standard solubility screening method.

Series [2] in a line: Pharmacokinetics in mice (iv and PO). It counts as in vivo.
Series [3] can be described thus: Pharmacokinetics in dog (iv and PO). It counts as in vivo.
A short description of series [4]: Pharmacokinetics in rat (iv and PO). It counts as in vivo.
Setting [5] is: Hepatitis B virus, read-out: HBsAg EC50, HepG2-Clone42 cells, HBsAg secretion reduced 50% vs DMSO control.
The mark [6] stands for this setting: read-out: HBsAg EC50, HepG2-Clone42 cells, HBsAg secretion reduced 50% vs DMSO control.

From patent publication US10093673B2, “Tetracyclic pyridone compounds as antivirals” (Novartis AG, priority 2016, dated 2018) come the findings set out here.

≈ marks a conversion by molar mass, not a printed value. Like-named read-outs stand apart in the source and are kept apart here.

On to `COCCCOc1cc2c(cc1OC)-c1c(F)c(=O)c(C(=O)O)cn1[C@@H]1[C@H]2CCC1(C)C` (racemic) [Compound 3.2], for which, in the series with HBsAg secretion (setting [5]), the EC50 was 740 nM.
Turning to `COCCCOc1cc2c(cc1OC)-c1cc(=O)c(C(=O)O)cn1[C@H]1[C@H]2CCC1(C)C` (racemic) [rac-2, 10-methoxy-11-(3-methoxypropoxy)-3,3-dimethyl-7-oxo-1,2,3,3a,7,12b-hexahydrocyclopenta[c]pyrido[2,1-a]isoquinoline-6-carboxylic acid], in the series with HBsAg secretion (setting [5]), the 50% effective concentration (EC50) is 460 nM.
For the compound `COCCCOc1cc2c(cc1OC)-c1cc(=O)c(C(=O)O)cn1C1C2CCCC1(C)C` (single isomer, unassigned) [Compound 9.1, 11-methoxy-12-(3-methoxypropoxy)-4,4-dimethyl-8-oxo-2,3,4,4a,8,13b-hexahydro-1H-pyrido[1,2-f]phenanthridine-7-carboxylic acid], in the series with HBsAg secretion (setting [6]), the EC50 stood at 9 nM.
Still for that read-out and setting: as for `COCCCOc1cc2c(cc1OC)-c1cc(=O)c(C(=O)O)cn1C1C2CCCC1(C)C` (single isomer, unassigned) [Compound 9.2, 11-methoxy-12-(3-methoxypropoxy)-4,4-dimethyl-8-oxo-2,3,4,4a,8,13b-hexahydro-1H-pyrido[1,2-f]phenanthridine-7-carboxylic acid], the figure is 303 nM.
As to `COCCCOc1cc2c(cc1Cl)-c1cc(=O)c(C(=O)O)cn1[C@H]1[C@@H]2CCC1(C)C` (stereo in doubt) [Compound 5.1, (3aS,12bR)-10-chloro-11-(3-methoxypropoxy)-3,3-dimethyl-7-oxo-1,2,3,3a,7,12b-hexahydrocyclopenta[c]pyrido[2,1-a]isoquinoline-6-carboxylic acid], the EC50 in the series with HBsAg secretion (setting [5]) was determined as 6 nM.
`COCCCOc1cc2c(cc1OC)-c1cc(=O)c(C(=O)O)cn1[C@H]1[C@@H]2CCC1(C)C` [Compound 1.1, (3aS,12bR)-10-methoxy-11-(3-methoxypropoxy)-3,3-dimethyl-7-oxo-1,2,3,3a,7,12b-hexahydrocyclopenta[c]pyrido[2,1-a]isoquinoline-6-carboxylic acid] came in with a solubility at 24 h in series [1] of 2400 µM (≈ 1030 µg/mL). In addition, the EC50 in the series on HBsAg secretion (setting [5]) stood at 0.1 nM. The T1/2term. in series [2] is recorded as 1.6 h; in series [3], 5.9 h; in series [4], 2.4 h. Moreover, the maximum concentration (Cmax) came out at 570 nM in series [2] (mouse, in vivo, PO 2.0 mg/kg); 1900 nM in series [3] (in vivo, PO 1.0 mg/kg); 1720 nM in series [4] (in vivo, PO 2.0 mg/kg). The Tmax in series [2] (mouse, in vivo, PO 2.0 mg/kg) was 0.5 h; in series [3] (in vivo, PO 1.0 mg/kg) it was 0.22 h; in series [4] (in vivo, PO 2.0 mg/kg), 1.33 h. Besides, the AUC turned out to be 1.7 µM·h in series [2] (mouse, in vivo, PO 2.0 mg/kg, read-out: AUC PO); 1.5 µM·h in series [2] (mouse, in vivo, iv 1.0 mg/kg, read-out: AUC iv); 5.7 µM·h in series [3] (in vivo, PO 1.0 mg/kg, read-out: AUC PO); 3.1 µM·h in series [3] (in vivo, iv 0.5 mg/kg, read-out: AUC iv); 4.5 µM·h in series [4] (in vivo, PO 2.0 mg/kg, read-out: AUC PO); 2.5 µM·h in series [4] (in vivo, iv 1.0 mg/kg, read-out: AUC iv). Moreover, the clearance was found to be 24.6 mL/min/kg in series [2] (mouse, in vivo, iv 1.0 mg/kg); 6.4 mL/min/kg in series [3] (in vivo, iv 0.5 mg/kg); 15.3 mL/min/kg in series [4] (in vivo, iv 1.0 mg/kg). Besides, the bioavailability in series [2] (mouse, in vivo, iv 1.0 mg/kg, PO 2.0 mg/kg, read-out: Oral BA (% F)) is 59%; in series [3] (in vivo, iv 0.5 mg/kg, PO 1.0 mg/kg, read-out: Oral BA (% F)) it was 93%; in series [4] (in vivo, iv 1.0 mg/kg, PO 2.0 mg/kg, read-out: Oral BA (% F)), 97%. Also, the Vd in series [2] (mouse, in vivo, iv 1.0 mg/kg, read-out: Vss) was 3.6 L/kg; in series [3] (in vivo, iv 0.5 mg/kg, read-out: Vss), 1.7 L/kg; in series [4] (in vivo, iv 1.0 mg/kg, read-out: Vss), 1.3 L/kg.
Regarding `COCCCOc1cc2c(cc1OC)-c1cc(=O)c(C(=O)O)cn1[C@@H]1[C@H]2CCC1(C)C` [Compound 1.2, (3aR,12bS)-10-methoxy-11-(3-methoxypropoxy)-3,3-dimethyl-7-oxo-1,2,3,3a,7,12b-hexahydrocyclopenta[c]pyrido[2,1-a]isoquinoline-6-carboxylic acid], the EC50 with HBsAg secretion (setting [5]) was determined as 13 nM.
Still for that read-out and setting: as for `COCCCOc1cc2c(cc1Cl)-c1cc(=O)c(C(=O)O)cn1[C@@H]1[C@H]2CCC1(C)C` [Compound 5.2, (3aR,12bS)-10-chloro-11-(3-methoxypropoxy)-3,3-dimethyl-7-oxo-1,2,3,3a,7,12b-hexahydrocyclopenta[c]pyrido[2,1-a]isoquinoline-6-carboxylic acid], the figure is 0.1 nM; as for `COCCCOc1cc2c(cc1OC)-c1cc(=O)c(C(=O)O)cn1C1CCCC21` (centres unmarked) [Compound 6.1, 10-methoxy-11-(3-methoxypropoxy)-7-oxo-1,2,3,3a,7,12b-hexahydrocyclopenta[c]pyrido[2,1-a]isoquinoline-6-carboxylic acid], 9 nM.
On to `COCCCOc1cc2c(cc1OC)-c1cc(=O)c(C(=O)O)cn1C1CCCC21` (centres unmarked) [Compound 6.2, 10-methoxy-11-(3-methoxypropoxy)-7-oxo-1,2,3,3a,7,12b-hexahydrocyclopenta[c]pyrido[2,1-a]isoquinoline-6-carboxylic acid], for which, in the series on HBsAg secretion (setting [6]), the EC50 came to 5 nM.
As to `COCCCOc1cc2c(cc1OC)-c1c(F)c(=O)c(C(=O)O)cn1[C@H]1[C@@H]2OCC1(C)C` [Compound 7.1, (3aR,12bR)-8-fluoro-10-methoxy-11-(3-methoxypropoxy)-3,3-dimethyl-7-oxo-3,3a,7,12b-tetrahydro-2H-furo[3,2-c]pyrido[2,1-a]isoquinoline-6-carboxylic acid], the EC50 in the series with HBsAg secretion (setting [5]) was 0.8 nM.
Take `COCCCOc1cc2c(cc1OC)-c1c(F)c(=O)c(C(=O)O)cn1C1[C@H]2OCC1(C)C` (some centres unmarked) [Compound 7.2]: in the series with HBsAg secretion (setting [5]), the half-maximal effective concentration (EC50) was found to be 90 nM.
For the compound `COCCCOc1cc2c(cc1OC)-c1cc(=O)c(C(=O)O)cn1[C@H]1[C@@H]2COC1(C)C` [Compound 8.1, (3aS,12bR)-10-methoxy-11-(3-methoxypropoxy)-3,3-dimethyl-7-oxo-3,3a,7,12b-tetrahydro-1H-furo[3,4-c]pyrido[2,1-a]isoquinoline-6-carboxylic acid], the EC50 in the series on HBsAg secretion (setting [5]) was determined as 1 nM.
